# According to US8343961B2, “Substituted heterocyclic compounds” (ArQule, Inc., priority 2009, dated 2013):
# Tests used:
# PACA-2 = assay: MTS Cellular Assay, PACA-2; format: cell-based; settings: PACA-2, 72 hours
# Description: (§1) Cells were maintained at 37° C., 5% CO2 in DMEM media supplemented with 1% fetal bovine serum, penicillin/streptomycin and fungizone (Invitrogen). Cells were seeded into 96-well tissue culture plates at 3000 per well and cultured at 37° C. for 18 hours. Test compounds were dissolved and diluted to 300× in DMSO then further diluted 1:40 in DMEM before addition to cells (1:7.5 dilution). Cells were incubated with test compounds for 72 hours followed by incubation with tetrazolium compound (3-(4,5-dimethylthiazol-2-yl)-5-(3-carboxymethoxyphenyl)-2-(4-sulfophenyl)-2H-tetrazolium, inner salt; MTS) and the electron coupling reagent, phenazine methosulfate (PMS) for 4 hours. […] The ability of compounds to inhibit cell growth in this assay is correlated with the reduction of dehydrogenase enzyme activity found in metabolically active cells. The measurement of the absorbance of the formazan was assessed using an ENVISION™ (Perkin Elmer) microplate reader at 492 nm. The calculated IC50 value is the concentration of the test compound that causes a 50% decrease in the absorbance.
# KATO III = assay: MTS Cellular Assay, KATO III; format: cell-based; settings: Homo sapiens, 72 hours
# Description: as §1
# NCI-H1299 = assay: MTS Cellular Assay, NCI-H1299; format: cell-based; settings: Homo sapiens, NCI-H1299, 72 hours
# Description: as §1
# DLD-1 = assay: MTS Cellular Assay, DLD-1; format: cell-based; settings: Homo sapiens, DLD-1, 72 hours
# Description: as §1
# Tec kinase = biological target: T1, Tec kinase (Homo sapiens, UniProt P42680); assay: Tec Kinase Activity Assay; format: biochemical; settings: read-out: Tec % INH, at 30 uM
# T1 sequence (P42680 1-631): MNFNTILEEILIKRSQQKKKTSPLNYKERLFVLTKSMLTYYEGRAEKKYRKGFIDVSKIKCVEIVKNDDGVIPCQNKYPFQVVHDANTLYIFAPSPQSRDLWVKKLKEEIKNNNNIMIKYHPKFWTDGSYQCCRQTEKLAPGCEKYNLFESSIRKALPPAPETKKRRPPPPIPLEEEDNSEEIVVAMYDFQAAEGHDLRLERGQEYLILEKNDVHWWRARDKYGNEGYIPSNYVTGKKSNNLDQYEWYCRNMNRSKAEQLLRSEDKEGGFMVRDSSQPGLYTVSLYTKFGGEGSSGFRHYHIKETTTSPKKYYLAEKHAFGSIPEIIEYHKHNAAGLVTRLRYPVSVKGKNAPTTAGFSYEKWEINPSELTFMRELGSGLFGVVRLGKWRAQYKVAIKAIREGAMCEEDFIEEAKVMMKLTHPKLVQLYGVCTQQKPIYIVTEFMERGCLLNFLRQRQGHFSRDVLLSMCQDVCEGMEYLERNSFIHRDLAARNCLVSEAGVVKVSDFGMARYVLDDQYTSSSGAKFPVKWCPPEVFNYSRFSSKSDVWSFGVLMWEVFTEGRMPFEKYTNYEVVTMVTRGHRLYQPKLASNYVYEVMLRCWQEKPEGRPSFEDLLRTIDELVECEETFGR
# Procedure, shortened: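 Biochemical Tec kinase reaction in Tris-HCl/MgCl2/EGTA/DTT buffer with 75 μM ATP, compound pre-incubated with enzyme for 30 min, then biotinylated Pyk-2 substrate added for 2 h at room temperature. Phosphorylated product captured on streptavidin and detected by anti-phosphotyrosine ELISA with alkaline phosphatase/Attophos fluorescence.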
# MDA-MB-231 = assay: MTS Cellular Assay, MDA-MB-231; format: cell-based; settings: Homo sapiens, MDA-MB-231, 72 hours
# Description: as §1
# PC-3 = assay: MTS Cellular Assay, PC-3; format: cell-based; settings: Homo sapiens, PC-3, 72 hours
# Description: as §1
SMILES,inhibition at 10 µM (PACA-2),inhibition at 10 µM (KATO III),inhibition at 10 µM (NCI-H1299),inhibition at 10 µM (DLD-1),inhibition at 30 µM (Tec kinase),inhibition at 10 µM (MDA-MB-231),inhibition at 10 µM (PC-3)
"Nc1nc(N2CCN(CCCc3cccc(F)c3)c3ccccc3C2)c2nc[nH]c2n1 [Compound 39, 6-{1-[3-(3-fluorophenyl)propyl]-1,2,3,5-tetrahydro-4H-1,4-benzodiazepin-4-yl}-9H-purin-2-amine]",> 79%,> 79%,> 79%,> 79%,< 50%,> 79%,> 79%
"Nc1nc(N2CCN(CCCc3cccc(Cl)c3)c3ccccc3C2)c2cn[nH]c2n1 [Compound 8, 4-{1-[3-(3-chlorophenyl)propyl]-1,2,3,5-tetrahydro-4H-1,4-benzodiazepin-4-yl}-1H-pyrazolo[3,4-d]pyrimidin-6-amine]",< 50%,< 50%,50 to 79%,> 79%,> 79%,< 50%,< 50%
"CC(C)(C)c1ccc(CN2CCN(c3nc(N)nc4[nH]cnc34)Cc3ccccc32)cc1 [Compound 29, 6-[1-(4-tert-butylbenzyl)-1,2,3,5-tetrahydro-4H-1,4-benzodiazepin-4-yl]-9H-purin-2-amine]",< 50%,< 50%,< 50%,< 50%,< 50%,< 50%,< 50%
"Nc1nc(N2CCN(Cc3ccc(Cl)c(Cl)c3)c3ccccc3C2)c2cn[nH]c2n1 [Compound 43, 4-[1-(3,4-dichlorobenzyl)-1,2,3,5-tetrahydro-4H-1,4-benzodiazepin-4-yl]-1H-pyrazolo[3,4-d]pyrimidin-6-amine]",< 50%,< 50%,50 to 79%,> 79%,> 79%,< 50%,< 50%
"COc1ccc(CN2CCN(c3nc(N)nc4[nH]ncc34)Cc3ccccc32)cc1OC [Compound 28, 4-[1-(3,4-dimethoxybenzyl)-1,2,3,5-tetrahydro-4H-1,4-benzodiazepin-4-yl]-1H-pyrazolo[3,4-d]pyrimidin-6-amine]",> 79%,> 79%,> 79%,> 79%,50 to 79%,> 79%,> 79%
